# Key:
# [1] = test system: proton motive force-driven multidrug efflux pump of E. coli CFT073; experiment: Ethidium bromide (EtBr) efflux assay; assay type: cell-based, Escherichia coli; conditions: PRMSE, catechol at 0.25 times the MIC; CCCP 100 μM; untreated cells 36.9
# Method: (§1) An overnight grown culture of each strain is diluted 1:100 using MHB-II broth to a final volume of 10 mL and grown to an OD600 of 0.8-1.0 (at 37° C., 150 rpm). […] The tubes are incubated for 1 h (37° C., 150 rpm). The inoculum is then adjusted to 0.4 OD600 with MHB-II broth containing 5 μM EtBr and 2 mL aliquots of this mixture are pelleted (5000×g, 10 min at 4° C.). The pellets are incubated on ice immediately, resuspended in 1 mL of MHB-II, and aliquoted (200 μL) into a polystyrene 96 well black, clear-bottom plate (Corning™, Fisher Scientific, ON, Canada). EtBr efflux from the cells is monitored at room temperature using the microplate reader (ex/em 530/600 nm). Readings are taken at 5 min intervals for 1 h to monitor efflux pump activity. The background fluorescence of the medium is subtracted from all measurements and the assay is repeated independently in triplicate.
# [2] = test system: proton motive force-driven multidrug efflux pump of P. aeruginosa PA14; experiment: Ethidium bromide (EtBr) efflux assay; assay type: cell-based, Pseudomonas aeruginosa; conditions: PRMSE, catechol at 0.25 times the MIC; CCCP 100 μM; untreated cells 30.9
# Method: as §1
# [3] = test system: proton motive force-driven multidrug efflux pump of P. aeruginosa PAO1; experiment: Ethidium bromide (EtBr) efflux assay; assay type: cell-based, Pseudomonas aeruginosa; conditions: PRMSE, catechol at 0.25 times the MIC; CCCP 100 μM; untreated cells 37.6
# Method: as §1
# [4] = test system: proton motive force-driven multidrug efflux pump of P. mirabilis HI4320; experiment: Ethidium bromide (EtBr) efflux assay; assay type: cell-based, Proteus mirabilis; conditions: PRMSE, catechol at 0.25 times the MIC; CCCP 100 μM; untreated cells 35.9
# Method: as §1
# [5] = test system: P. mirabilis HI4320; experiment: Determination of minimum inhibitory concentration (MIC); assay type: cell-based; conditions: Proteus mirabilis, HI4320, 18 h; read-out: MIC
# Method: (§2) A range of concentration of antibiotics, ciprofloxacin (0.0003-0.25 μg mL^−1) and carbenicillin (0.5-512 μg mL^−1), are chosen due to their known potency against all four bacterial strains. Dilutions are prepared in flat bottom, 96 well microtitre plates (Falcon™, Corning™, Fisher Scientific, ON, Canada). Each well of a microtitre plate is then inoculated with the desired bacterial strain (grown in MHB-II and diluted to […]) and the plate is incubated at 37° C. for 18 h under static conditions. Bacterial growth is assessed by (i) monitoring the optical density of the cell suspension in each well at 600 nm (OD600 nm), and (ii) the resazurin microtitre plate assay. In the resazurin microtitre plate assay, each well of a microtitre plate is supplemented with 20 μM resazurin, incubated in the dark for 20 min at room temperature, followed by fluorescence measurements at ex/em 570/590 nm using a TECAN Infinite M200 Pro microplate reader (Tecan Group Ltd., Switzerland). The lowest concentration of a compound able to prevent increase in OD600 nm and resazurin fluorescence intensity is recorded as the MIC for that compound.
# [6] = test system: P. aeruginosa PA14; experiment: as above; assay type: cell-based; conditions: Pseudomonas aeruginosa, PA14, 18 h; read-out: MIC
# Method: as §2
# [7] = test system: P. aeruginosa PAO1; experiment: as above; assay type: cell-based; conditions: Pseudomonas aeruginosa, PAO1, 18 h; read-out: MIC
# Method: as §2
# [8] = test system: E. coli CFT073; experiment: as above; assay type: cell-based; conditions: Escherichia coli, CFT073, 18 h; read-out: MIC
# Method: as §2
# [9] = test system: P. aeruginosa PA14; experiment: Checkerboard microdilution assay (growth inhibition synergy); assay type: cell-based, Pseudomonas aeruginosa
# Method: (§3) The checkerboard microdilution assay is used for evaluation of in vitro antimicrobial synergy between two compounds (i.e., antibiotic/PRMSE, antibiotic/pure phenolic compound, and pure phenolic compounds with each other). Two-fold serial dilutions are prepared in MHB-II for each of the two compounds under study. The serial dilutions are then loaded into 96 well plates to achieve combinations having different concentrations of each of the two compounds. Each well is subsequently inoculated with 10^6 CFU mL^−1 of the desired bacterial strain and incubated at 37° C. for 18 h under static conditions. The Fractional Inhibitory Concentration Index (FICI) for each combination is calculated by using the following formula: FICcomponent 1=MICcomponent 1, in combination/MICcomponent 1,alone FICI=FICcomponent 1+FICcomponent 2
# (§4) The FICIs are interpreted as follows: FICI of […] (synergy); 0.5<FICI ≤1 (no interaction/indifference); FICI of >4 (antagonism).
# [10] = test system: P. aeruginosa PAO1; experiment: as above; assay type: cell-based, Pseudomonas aeruginosa
# Method: as §3, §4
# [11] = test system: P. mirabilis HI4320; experiment: as above; assay type: cell-based, Proteus mirabilis
# Method: as §3, §4
# [12] = test system: E. coli CFT073; experiment: as above; assay type: cell-based, Escherichia coli
# Method: as §3, §4
# [13] = test system: cell membrane of E. coli CFT073; experiment: BacLight membrane integrity assay; assay type: cell-based, Escherichia coli; conditions: PRMSE, catechol at 4 × MIC for 10 min; CTAB 10 μM; untreated = 100
# Method: (§5) The BacLight kit (L-13152, Invitrogen™, Life Technologies Inc., Canada) is used to assess cell membrane damage. Overnight bacterial cultures are diluted 1:40 in fresh MHBII broth to a final volume of 5 mL, grown to an OD600 of 0.5-0.6, washed with filter-sterilized 10 mM phosphate buffered saline (PBS, pH 7.0) and resuspended in 1/10 of the original volume. […] Cultures are incubated at room temperature (21±2° C.) on a tube rocker for 10 min. At the end of the incubation period, an aliquot is taken for CFU counts and the remaining suspension is washed with 10 mM PBS and resuspended to an OD600) of 0.3. An aliquot (100 μL) of each bacterial suspension is removed and added to a 96-well, black, clear-bottom plate (Corning™, Fisher Scientific, ON, Canada) along with an equal volume of the BacLight™ reagent (2× stock solution, L13152, Invitrogen™, Life Technologies Inc., Canada) and the plates are incubated for 10 min at room temperature in the dark. At the end of the incubation period, fluorescence intensity is recorded for both kit components, SYTO-9 (ex/em 485/530 nm) and propidium iodide (ex/em 485/645 nm), using the microplate reader. Fluorescence readings from samples are normalized to the values obtained from untreated control to determine the ratio of membrane compromised cells to cells with intact membrane. […]
# [14] = test system: P. mirabilis HI4320; experiment: Bacterial colony forming ability (CFU counts after exposure); assay type: cell-based, Proteus mirabilis; conditions: log decrease vs untreated control; 4 × MIC, 10 min; CTAB 10 μM
# Method: (§6) The BacLight kit (L-13152, Invitrogen™, Life Technologies Inc., Canada) is used to assess cell membrane damage. Overnight bacterial cultures are diluted 1:40 in fresh MHBII broth to a final volume of 5 mL, grown to an OD600 of 0.5-0.6, washed with filter-sterilized 10 mM phosphate buffered saline (PBS, pH 7.0) and resuspended in 1/10 of the original volume. […] Cultures are incubated at room temperature (21±2° C.) on a tube rocker for 10 min. At the end of the incubation period, an aliquot is taken for CFU counts and the remaining suspension is washed with 10 mM PBS and resuspended to an OD600) of 0.3. An aliquot (100 μL) of each bacterial suspension is removed and added to a 96-well, black, clear-bottom plate (Corning™, Fisher Scientific, ON, Canada) along with an equal volume of the BacLight™ reagent (2× stock solution, L13152, Invitrogen™, Life Technologies Inc., Canada) and the plates are incubated for 10 min at room temperature in the dark. At the end of the incubation period, fluorescence intensity is recorded for both kit components, SYTO-9 (ex/em 485/530 nm) and propidium iodide (ex/em 485/645 nm), using the microplate reader. Fluorescence readings from samples are normalized to the values obtained from untreated control to determine the ratio of membrane compromised cells to cells with intact membrane. Cetyltrimethylammonium bromide (CTAB, Sigma-Aldrich Canada), a cationic detergent that is known to cause membrane damage, is used at concentration of 10 μM as a positive control for membrane disruption.
# [15] = test system: cell membrane of P. aeruginosa PA14; experiment: BacLight membrane integrity assay; assay type: cell-based, Pseudomonas aeruginosa; conditions: PRMSE, catechol at 4 × MIC for 10 min; CTAB 10 μM; untreated = 100
# Method: as §6
# [16] = test system: cell membrane of P. aeruginosa PAO1; experiment: BacLight membrane integrity assay; assay type: cell-based, Pseudomonas aeruginosa; conditions: PRMSE, catechol at 4 × MIC for 10 min; CTAB 10 μM; untreated = 100
# Method: as §6
# [17] = test system: cell membrane of P. mirabilis HI4320; experiment: BacLight membrane integrity assay; assay type: cell-based, Proteus mirabilis; conditions: PRMSE, catechol at 4 × MIC for 10 min; CTAB 10 μM; untreated = 100
# Method: as §5
# [18] = test system: E. coli CFT073; experiment: Bacterial colony forming ability (CFU counts after exposure); assay type: cell-based, Escherichia coli; conditions: log decrease vs untreated control; 4 × MIC, 10 min; CTAB 10 μM
# Method: as §6
# [19] = test system: P. aeruginosa PA14; experiment: as above; assay type: cell-based, Pseudomonas aeruginosa; conditions: log decrease vs untreated control; 4 × MIC, 10 min; CTAB 10 μM
# Method: as §6
# [20] = test system: P. aeruginosa PAO1; experiment: as above; assay type: cell-based, Pseudomonas aeruginosa; conditions: log decrease vs untreated control; 4 × MIC, 10 min; CTAB 10 μM
# Method: as §6
# [21] = ciprofloxacin in combination with the labelled phenolic constituent
# [22] = labelled phenolic constituent + ciprofloxacin, * = synergistic interaction
# [23] = labelled phenolic constituent in combination with ciprofloxacin
smiles,measurement,setting,value
"N#CC(C#N)=NNc1cccc(Cl)c1 [CCCP, carbonyl cyanide m-chlorophenylhydrazone, reference compound]",Efflux pump activity,[1],15.8%
same,Efflux pump activity,[2],17%
same,% EtBr efflux,[3],19.3%
same,Efflux pump activity,[4],14.5%
O=C(O)c1cc(O)c(O)c(O)c1 [gallic acid],MIC,[5],5000 µg/mL
same,MIC,[6],5000 µg/mL
same,MIC,[7],5000 µg/mL
same,MIC,[8],5000 µg/mL
same,FIC of ciprofloxacin,[9]; [21],1
same,FICI,[9]; [22],2
same,FIC of compound,[9]; [23],1
same,FIC of ciprofloxacin,[10]; [21],1
same,FICI,[10]; [22],2
same,FIC of compound,[10]; [23],1
same,FIC of ciprofloxacin,[11]; [21],1
same,FICI,[11]; [22],2
same,FIC of compound,[11]; [23],1
same,FIC of ciprofloxacin,[12]; [21],1
same,FICI,[12]; [22],2
same,FIC of compound,[12]; [23],1
"CCCCCCCCCCCCCCCC[N+](C)(C)C.[Br-] [CTAB, cetyltrimethyl-ammonium bromide, reference compound]",% cells with uncompromised membrane (BacLight assay),[13],0%
same,Bacterial colony forming ability (Δ log CFU mL^−1),[14],4.5 Δ log CFU mL^−1
same,% cells with uncompromised membrane,[15],0%
same,% cells with uncompromised membrane,[16],0%
same,% cells with uncompromised membrane,[17],0%
same,Bacterial colony forming ability (Δ log CFU mL^−1),[18],5.7 Δ log CFU mL^−1
same,Bacterial colony forming ability (Δ log CFU mL^−1),[19],4.9 Δ log CFU mL^−1
same,Bacterial colony forming ability (Δ log CFU mL^−1),[20],5.1 Δ log CFU mL^−1

# Source: US10206906B2, “Synergistic combination of a phenolic-rich maple syrup extract and an antibiotic” (priority 2015, dated 2019)
